One assay addresses Carbonic anhydrase 1 (Homo sapiens, UniProt P00915).
In another assay the target is T1, Carbonic anhydrase 4 (Bos taurus, UniProt Q95323).
T1 sequence (Q95323 whole entry): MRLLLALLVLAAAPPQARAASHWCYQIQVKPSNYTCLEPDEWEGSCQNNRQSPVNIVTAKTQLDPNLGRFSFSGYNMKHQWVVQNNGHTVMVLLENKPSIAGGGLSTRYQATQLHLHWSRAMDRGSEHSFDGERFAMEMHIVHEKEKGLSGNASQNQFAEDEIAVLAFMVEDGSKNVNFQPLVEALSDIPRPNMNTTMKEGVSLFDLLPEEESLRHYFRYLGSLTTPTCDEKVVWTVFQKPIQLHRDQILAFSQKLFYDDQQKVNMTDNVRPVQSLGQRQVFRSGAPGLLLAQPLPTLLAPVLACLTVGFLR

The next assay concerns the target Carbonic anhydrase 2 (Homo sapiens, UniProt P00918).

Sequence of Carbonic anhydrase 1 (P00915 whole entry): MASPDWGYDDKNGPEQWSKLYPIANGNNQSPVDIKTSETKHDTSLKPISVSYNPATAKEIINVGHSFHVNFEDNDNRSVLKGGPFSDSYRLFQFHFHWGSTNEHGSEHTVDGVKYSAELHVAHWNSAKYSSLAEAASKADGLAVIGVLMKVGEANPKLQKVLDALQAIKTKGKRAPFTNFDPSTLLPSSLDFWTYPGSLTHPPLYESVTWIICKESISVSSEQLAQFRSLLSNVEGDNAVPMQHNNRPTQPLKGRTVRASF

Usually Ki stands for a dissociation constant, usually derived from enzyme kinetics or from competition with a known ligand. Low values mean a stronger hold on the target, high ones a looser hold on the target. On to `O=S(=O)(NO)C(Cl)(Cl)Cl`, for which the results for the Ki on Carbonic anhydrase 1, on Carbonic anhydrase 4 and on Carbonic anhydrase 2 were 23000 nM, 210 nM and 150 nM, respectively.

As for `COc1ccc(S(=O)(=O)N(CC(=O)NO)Cc2ccccc2[N+](=O)[O-])cc1`, the Ki at Carbonic anhydrase 1 is more than 200 nM; on Carbonic anhydrase 4, 140 nM; on Carbonic anhydrase 2, 170 nM.

For the compound `O=[N+]([O-])c1ccc(S(=O)(=O)NO)cc1Cl`, the inhibition constant (Ki) on Carbonic anhydrase 1 worked out at 17000 nM; on Carbonic anhydrase 4 it was 12 nM; on Carbonic anhydrase 2, 4 nM.

On to `O=C(CN(Cc1ccccc1)S(=O)(=O)c1c(F)c(F)c(F)c(F)c1F)NO`, for which the Ki worked out at 90 nM on Carbonic anhydrase 1, 42 nM at Carbonic anhydrase 4 and 36 nM at Carbonic anhydrase 2.

`CC(C)C(NS(=O)(=O)C(F)(F)C(F)(F)C(F)(F)C(F)(F)F)C(=O)NO` (stereo not drawn): the inhibition constant (Ki) on Carbonic anhydrase 1 worked out at 29 nM; at Carbonic anhydrase 4, 20 nM; at Carbonic anhydrase 2 it was 15 nM.

For `COc1ccc(S(=O)(=O)N(Cc2ccccc2Cl)C(C)C(=O)NO)cc1` (stereo not drawn), the Ki at Carbonic anhydrase 1, at Carbonic anhydrase 4 and at Carbonic anhydrase 2 was more than 200 nM in each case.

As to `O=S(=O)(Cc1ccccc1)NO`, the Ki on Carbonic anhydrase 1 amounted to 19000 nM; on Carbonic anhydrase 4, 460 nM; at Carbonic anhydrase 2, 190 nM.

For the compound `O=C(CN(Cc1ccc([N+](=O)[O-])cc1)S(=O)(=O)c1c(F)c(F)c(F)c(F)c1F)NO`, the results for the inhibition constant Ki on Carbonic anhydrase 1, at Carbonic anhydrase 4 and at Carbonic anhydrase 2 were 150 nM, 130 nM and 107 nM, respectively.

With `CC(=O)Nc1ccc(S(=O)(=O)NO)cc1`, the Ki amounted to 40000 nM at Carbonic anhydrase 1, 40 nM at Carbonic anhydrase 4 and 29 nM on Carbonic anhydrase 2.

Regarding `O=[N+]([O-])c1ccc(S(=O)(=O)NO)cc1`, the values for the Ki at Carbonic anhydrase 1, on Carbonic anhydrase 4 and on Carbonic anhydrase 2 were 57000 nM, 70 nM and 9 nM, respectively.

Regarding `CC(C)CC(C(=O)NO)N(Cc1ccccc1)S(=O)(=O)c1c(F)c(F)c(F)c(F)c1F` (stereo not drawn), the results for the Ki at Carbonic anhydrase 1, on Carbonic anhydrase 4 and on Carbonic anhydrase 2 were 100 nM, 75 nM and 56 nM, respectively.

In the case of `CC(NS(=O)(=O)C(F)(F)C(F)(F)C(F)(F)C(F)(F)F)C(=O)NO` (stereo not drawn), the Ki amounted to 21 nM at Carbonic anhydrase 1, 17 nM at Carbonic anhydrase 4 and 16 nM at Carbonic anhydrase 2.

In the case of `COc1ccc(S(=O)(=O)NC(C)C(=O)NO)cc1` (stereo not drawn), the values for the Ki at Carbonic anhydrase 1, at Carbonic anhydrase 4 and on Carbonic anhydrase 2 were 32 nM, 30 nM and 35 nM, respectively.

For the compound `CC(C(=O)NO)N(Cc1ccccc1[N+](=O)[O-])S(=O)(=O)c1c(F)c(F)c(F)c(F)c1F` (stereo not drawn), the values for the Ki on Carbonic anhydrase 1, on Carbonic anhydrase 4 and on Carbonic anhydrase 2 were more than 200 nM, more than 200 nM and 160 nM, respectively.

Take `O=S(=O)(NO)c1ccccc1`: the Ki at Carbonic anhydrase 1 turned out to be 18000 nM; at Carbonic anhydrase 4 it was 74 nM; on Carbonic anhydrase 2, 26 nM.

As for `CC(NS(=O)(=O)c1c(F)c(F)c(F)c(F)c1F)C(=O)NO` (stereo not drawn), the Ki is 7 nM on Carbonic anhydrase 1, 10 nM on Carbonic anhydrase 4 and 8 nM at Carbonic anhydrase 2.

Consider `COc1ccc(S(=O)(=O)NCC(=O)NO)cc1`, for which the inhibition constant (Ki) came to 30 nM on Carbonic anhydrase 1, 29 nM on Carbonic anhydrase 4 and 32 nM on Carbonic anhydrase 2.

For `O=C(CN(Cc1ccccc1[N+](=O)[O-])S(=O)(=O)c1c(F)c(F)c(F)c(F)c1F)NO`, the Ki came to 127 nM at Carbonic anhydrase 1, 49 nM on Carbonic anhydrase 4 and 74 nM on Carbonic anhydrase 2.

Regarding `O=S(=O)(NO)C(F)(F)F`, the inhibition constant (Ki) was found to be 20000 nM on Carbonic anhydrase 1, 16 nM at Carbonic anhydrase 4 and 30 nM on Carbonic anhydrase 2.

As to `O=S(=O)(NO)c1ccc(Br)cc1`, the figures for the Ki on Carbonic anhydrase 1, at Carbonic anhydrase 4 and on Carbonic anhydrase 2 were 38000 nM, 39 nM and 18 nM, respectively.

On to `CC(C)C(C(=O)NO)N(Cc1ccccc1)S(=O)(=O)C(F)(F)C(F)(F)C(F)(F)C(F)(F)F` (stereo not drawn), for which the values for the Ki at Carbonic anhydrase 1, at Carbonic anhydrase 4 and at Carbonic anhydrase 2 were 140 nM, 124 nM and 108 nM, respectively.

As for `CC(C(=O)NO)N(Cc1ccc([N+](=O)[O-])cc1)S(=O)(=O)c1c(F)c(F)c(F)c(F)c1F` (stereo not drawn), the Ki at Carbonic anhydrase 1, on Carbonic anhydrase 4 and at Carbonic anhydrase 2 was more than 200 nM each time.

Take `O=S(=O)(NO)c1c(F)c(F)c(F)c(F)c1F`: the Ki is 30000 nM at Carbonic anhydrase 1, 13 nM on Carbonic anhydrase 4 and 0.8 nM at Carbonic anhydrase 2.

As for `CC(C)CC(NS(=O)(=O)C(F)(F)C(F)(F)C(F)(F)C(F)(F)F)C(=O)NO` (stereo not drawn), the inhibition constant Ki at Carbonic anhydrase 4 turned out to be 30 nM; on Carbonic anhydrase 2 it was 18 nM.

For the compound `O=[N+]([O-])c1ccccc1S(=O)(=O)NO`, the results for the inhibition constant Ki on Carbonic anhydrase 1, at Carbonic anhydrase 4 and on Carbonic anhydrase 2 were 15000 nM, 13 nM and 5 nM, respectively.

On to `CC(C)CC(NS(=O)(=O)c1c(F)c(F)c(F)c(F)c1F)C(=O)NO` (stereo not drawn), for which the results for the inhibitory constant (Ki) on Carbonic anhydrase 1, at Carbonic anhydrase 4 and at Carbonic anhydrase 2 were 10 nM, 19 nM and 11 nM, respectively.

Take `CN(C)S(=O)(=O)NO`: the Ki is 12000 nM at Carbonic anhydrase 1, 290 nM on Carbonic anhydrase 4 and 40 nM on Carbonic anhydrase 2.

For `O=C(CN(Cc1ccccc1)S(=O)(=O)C(F)(F)C(F)(F)C(F)(F)C(F)(F)F)NO`, the Ki on Carbonic anhydrase 1 stood at 105 nM; at Carbonic anhydrase 4, 100 nM; at Carbonic anhydrase 2 it was 85 nM.

For the compound `Cc1ccc(S(=O)(=O)NO)cc1`, the inhibitory constant (Ki) is 51000 nM on Carbonic anhydrase 1, 127 nM at Carbonic anhydrase 4 and 70 nM at Carbonic anhydrase 2.

For the compound `CC(C(=O)NO)N(Cc1ccccc1)S(=O)(=O)c1c(F)c(F)c(F)c(F)c1F` (stereo not drawn), the Ki at Carbonic anhydrase 1 was found to be 84 nM; on Carbonic anhydrase 4, 43 nM; at Carbonic anhydrase 2 it was 38 nM.

`CC(C(=O)NO)N(Cc1ccc([N+](=O)[O-])cc1)S(=O)(=O)C(F)(F)C(F)(F)C(F)(F)C(F)(F)F` (stereo not drawn): the Ki on Carbonic anhydrase 1, on Carbonic anhydrase 4 and on Carbonic anhydrase 2 was more than 200 nM throughout.

In the case of `O=S(=O)(NO)C(F)(F)C(F)(F)C(F)(F)C(F)(F)F`, the Ki on Carbonic anhydrase 1 was 1800 nM; on Carbonic anhydrase 4, 27 nM; on Carbonic anhydrase 2 it was 15 nM.

As for `CC(C(=O)NO)N(Cc1ccccc1Cl)S(=O)(=O)C(F)(F)C(F)(F)C(F)(F)C(F)(F)F` (stereo not drawn), the Ki at Carbonic anhydrase 1, at Carbonic anhydrase 4 and on Carbonic anhydrase 2 was more than 200 nM each time.

Regarding `CC(C(=O)NO)N(Cc1ccccc1)S(=O)(=O)C(F)(F)C(F)(F)C(F)(F)C(F)(F)F` (stereo not drawn), the Ki is 121 nM at Carbonic anhydrase 1, 107 nM on Carbonic anhydrase 4 and 92 nM at Carbonic anhydrase 2.

As to `COc1ccc(S(=O)(=O)N(Cc2ccc([N+](=O)[O-])cc2)C(C)C(=O)NO)cc1` (stereo not drawn), the Ki on Carbonic anhydrase 1, on Carbonic anhydrase 4 and at Carbonic anhydrase 2 was more than 200 nM in each case.

As to `CS(=O)(=O)NO`, the Ki was 56 nM on Carbonic anhydrase 4 and 4.7 nM on Carbonic anhydrase 2.

For the compound `O=C(CNS(=O)(=O)c1c(F)c(F)c(F)c(F)c1F)NO`, the Ki turned out to be 7 nM at Carbonic anhydrase 1, 10 nM at Carbonic anhydrase 4 and 8 nM on Carbonic anhydrase 2.

In the case of `COc1ccc(S(=O)(=O)N(Cc2ccccc2[N+](=O)[O-])C(C)C(=O)NO)cc1` (stereo not drawn), the inhibitory constant (Ki) at Carbonic anhydrase 1, at Carbonic anhydrase 4 and at Carbonic anhydrase 2 was more than 200 nM in each case.

In the case of `COc1ccc(S(=O)(=O)N(CC(=O)NO)Cc2ccccc2)cc1`, the inhibitory constant (Ki) on Carbonic anhydrase 1 is more than 200 nM; on Carbonic anhydrase 4, 145 nM; at Carbonic anhydrase 2, 120 nM.

Regarding `CC(C)CC(C(=O)NO)N(Cc1ccccc1)S(=O)(=O)C(F)(F)C(F)(F)C(F)(F)C(F)(F)F` (stereo not drawn), the results for the Ki on Carbonic anhydrase 1, on Carbonic anhydrase 4 and on Carbonic anhydrase 2 were 180 nM, 139 nM and 116 nM, respectively.

For the compound `O=C(CNS(=O)(=O)C(F)(F)C(F)(F)C(F)(F)C(F)(F)F)NO`, the Ki amounted to 18 nM on Carbonic anhydrase 1, 16 nM at Carbonic anhydrase 4 and 15 nM at Carbonic anhydrase 2.

As to `O=S(=O)(NO)c1ccc(F)cc1`, the Ki on Carbonic anhydrase 1 came to 15000 nM; on Carbonic anhydrase 4 it was 90 nM; at Carbonic anhydrase 2, 19 nM.

For the compound `COc1ccc(S(=O)(=O)N(Cc2ccccc2)C(C(=O)NO)C(C)C)cc1` (stereo not drawn), the Ki at Carbonic anhydrase 1 was more than 200 nM; on Carbonic anhydrase 4, 185 nM; at Carbonic anhydrase 2 it was more than 200 nM.

In the case of `CC(C(=O)NO)N(Cc1ccccc1Cl)S(=O)(=O)c1c(F)c(F)c(F)c(F)c1F` (stereo not drawn), the Ki at Carbonic anhydrase 1, on Carbonic anhydrase 4 and at Carbonic anhydrase 2 was more than 200 nM in each case.

With `O=S(=O)(NO)C(F)(F)C(F)(F)C(F)(F)C(F)(F)C(F)(F)C(F)(F)C(F)(F)C(F)(F)F`, the Ki stood at 1600 nM on Carbonic anhydrase 1, 21 nM at Carbonic anhydrase 4 and 9 nM on Carbonic anhydrase 2.

Take `O=S(=O)(NO)c1ccc(Cl)cc1`: the Ki stood at 27000 nM at Carbonic anhydrase 1, 120 nM at Carbonic anhydrase 4 and 21 nM at Carbonic anhydrase 2.

For the compound `COc1ccc(S(=O)(=O)N(Cc2ccccc2)C(C)C(=O)NO)cc1` (stereo not drawn), the Ki at Carbonic anhydrase 1 was 195 nM; on Carbonic anhydrase 4, 136 nM; on Carbonic anhydrase 2, 120 nM.

`O=S(=O)(NO)c1cccc(C(F)(F)F)c1`: the inhibition constant Ki at Carbonic anhydrase 1 was 33000 nM; on Carbonic anhydrase 4, 16 nM; at Carbonic anhydrase 2, 1.1 nM.

Regarding `O=C(CN(Cc1ccc([N+](=O)[O-])cc1)S(=O)(=O)C(F)(F)C(F)(F)C(F)(F)C(F)(F)F)NO`, the figures for the Ki at Carbonic anhydrase 1, on Carbonic anhydrase 4 and on Carbonic anhydrase 2 were more than 200 nM, 136 nM and 118 nM, respectively.

Consider `CC(C(=O)NO)N(Cc1ccccc1[N+](=O)[O-])S(=O)(=O)C(F)(F)C(F)(F)C(F)(F)C(F)(F)F` (stereo not drawn), for which the Ki on Carbonic anhydrase 1, at Carbonic anhydrase 4 and on Carbonic anhydrase 2 was more than 200 nM each time.

Consider `COc1ccc(S(=O)(=O)NO)cc1`, for which the Ki came out at 68000 nM at Carbonic anhydrase 1, 110 nM at Carbonic anhydrase 4 and 51 nM on Carbonic anhydrase 2.

As for `COc1ccc(S(=O)(=O)N(Cc2ccccc2)C(CC(C)C)C(=O)NO)cc1` (stereo not drawn), the Ki is more than 200 nM on Carbonic anhydrase 1, 190 nM on Carbonic anhydrase 4 and more than 200 nM at Carbonic anhydrase 2.

Turning to `O=[N+]([O-])c1cccc(S(=O)(=O)NO)c1`, the values for the inhibition constant Ki at Carbonic anhydrase 1, on Carbonic anhydrase 4 and at Carbonic anhydrase 2 were 17000 nM, 24 nM and 5 nM, respectively.

For `Nc1ccc(S(=O)(=O)NO)cc1`, the Ki on Carbonic anhydrase 1 came to 62000 nM; at Carbonic anhydrase 4 it was 55 nM; on Carbonic anhydrase 2, 37 nM.

For `CC(C)C(NS(=O)(=O)c1c(F)c(F)c(F)c(F)c1F)C(=O)NO` (stereo not drawn), the inhibition constant Ki is 8 nM on Carbonic anhydrase 1, 13 nM at Carbonic anhydrase 4 and 11 nM at Carbonic anhydrase 2.

For the origin of these results see ChEMBL document CHEMBL1133677, “Carbonic anhydrase and matrix metalloproteinase inhibitors: sulfonylated amino acid hydroxamates with MMP inhibitory properties act as efficient inhibitors of CA isozymes I, II, and IV, and N-hydroxysulfonamides inhibit both these zinc enzymes” (J Med Chem, 2000).
